# Assay results reported in patent publication US6291247A, “Methods of screening for factors that disrupt neurotrophin conformation and reduce neurotrophin biological activity” (priority 1996, dated 2001).
# “Also recorded” adds a separate entry of the source.
# Legend:
# p75^NTR and TrkA [1] = biological target: T1, p75^NTR and TrkA (Mus musculus, UniProt P01139); experiment: Binding of 125I-NGF to PC12 cells (p75NTR + TrkA); set-up: species or system rat; details: 120 min; for steady-state specific binding of 125I-NGF (0.5 nM) to p75NTR and TrkA: ± SEM
# T1 construct: these cells express both NGF receptor types; endogenous in cells; host or cells: PC12 rat pheochromocytoma cells
# T1 sequence (P01139 122-239): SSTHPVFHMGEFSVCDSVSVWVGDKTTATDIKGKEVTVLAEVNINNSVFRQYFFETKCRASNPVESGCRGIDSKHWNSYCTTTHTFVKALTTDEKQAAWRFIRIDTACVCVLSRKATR
# Description: (§1) PC12 cells were grown in RPMI with 10% heat inactivated donor horse serum and 5% fetal calf serum. […] The tubes were incubated for 2 hr at 4° C. and 100 μl aliquots (providing triplicate data points for each sample) were transferred to 400 μl microcentrifuges containing 200 μl of 10% glycerol in HKR. Tubes were centrifuged for 2 minutes at 5,000 rpm, the tip containing the cell pellet cut off and radioactivity bound to the cells was determined.
# p75^NTR and TrkA [2] = experiment: Binding of 125I-NGF to PC12 cells (p75NTR + TrkA); set-up: species or system rat; details: above 100 μM
# Description: as §1
# p75^NTR and TrkA [3] = system: T2, p75^NTR and TrkA; experiment: Binding of 125I-NGF to PC12 cells (p75NTR + TrkA); set-up: species or system rat; details: 100 μM; CaEDTA together with Zn2+
# T2 construct: these cells express both NGF receptor types; endogenous in cells; host or cells: PC12 rat pheochromocytoma cells
# Description: as §1
# T2 sequence (P01139 122-239): as above
# PC12 cells [4] = experiment: NGF-dependent survival of PC12 cells; type: cell-based, rat
# Description: (§2) Effects of divalent ions on NGF mediated survival and toxicity was evaluated using a colorimetric assay for the lysosomal enzyme acid phosphatase to determine cell number (Connolly, D. T., Knight, M. B., Harakas, N. K, Wittwer, A. J. & Feder, J. Determination of the number of endothelial cells in culture using an acid phosphatase assay. Anal. Biochem. 152, 136-140 (1986); Ueda, Y., Walsh, E., Nakanishi H. & Yoshida, K. A. colorometric assay method for the evaluation of neurotrophic activity in vitro. Neurosci. Lett. 165, 203-207 (1994)). […] To evaluate toxicity, the cells were seeded and maintained without NGF in RPMI with 10% heat inactivated donor horse serum and 5% fetal calf serum in the presence of additives. Loss in viable cell number was determined and expressed as a percent of control. NGF rescues PC12 cells from cell death in serum-free medium(Greene, L. A. Nerve growth factor prevents the death and stimulates neuronal differentiation of clonal PC12 pheochromocytoma cells in serum-free medium. J. Cell Biol. 78, 747-755 (1978)). NGF-dependent survival was assessed by harvesting PC12 cells in balanced salt solution followed with washing by 4 cycles of suspension and centrifugation in serum-free RPMI prior to seeding in 96 well plates. After incubation with additives, medium was removed from the wells and cells washed once with 200 μl PBS. Buffer containing 0.1M sodium acetate pH 5.5, 0.1% Triton X-100 and 10 mM p-nitrophenyl phosphate (Sigma 104 phosphatase substrate) was added to each well (100 μl). Plates were incubated at 37° C. for 3 hours. The reaction was stopped by the addition of 10 μl/well of 1N sodium hydroxide and the color development measured at 405 nm using a microplate reader. The relationship between cell number and enzyme activity was linear over the range 1000 to 15,000 cells.
# (§3) To explore the ability of other transition metals to influence the biological activities of NGF, a series of cations known to mimic in certain respects the binding of zinc to proteins were tested. […] For this reason these ions were not tested in NGF- dependant growth phenomena. […] As these studies appeared to indicate potentially complex results upon metal ions binding to NGF, a receptor crosslinking system where specific receptor types could be identified was utilized.
# PC12 cells [5] = experiment: Toxicity to PC12 cells; type: cell-based, rat
# Description: as §2, §3
# TrkA receptor = experiment: NGF-dependent TrkA phosphorylation in PC12 cells, metal ions; type: cell-based, rat
# Description: Zn^2+ and/or other additives were allowed to equilibrate with NGF for 2 hours at 4° C. prior to addition of cells. PC12 cells were used at 10^6 cells/ml and incubated with 40 pM NGF for 15 minutes at 37° C. At the conclusion of the reaction, cells were washed, lysed in TBS containing 10% glycerol, 1% Triton X-100, 1 mM PMSF, 10 μg/ml aprotinin, 1 μg/ml leupeptin and 500 μM orthovanadate (lysis buffer, 10^8 cells/ml). The cellular debris was removed by centrifugation and the soluble proteins incubated with an anti-TrkA cytoplasmic domain antibody. Antibody complexes were isolated by incubating with immobilized protein G (Pierce Ultralink; 70 μl of a 50% slurry) for 2 hours at 4° C. The solid phase was washed extensively with lysis buffer and the pellet dissolved in SDS sample buffer. Proteins were resolved using 6% SDS PAGE and Western analysis performed with anti-phosphotyrosine 4G10 (UBI) visualized with ECL (Amersham).
# DRG neurons [6] = experiment: BDNF-dependent neurite outgrowth of DRG neurons; type: cell-based, chick; details: n = 8
# Description: (§4) Dissosiated cells enriched for sensory neurons were prepared from ED8 chick DRG as described (Dostaler, S. M. et al. Characterization of a distinctive motif of the low molecular weight neurotrophin receptor that modulates NGF-mediated neurite growth. Eur. J. Neurosci. 8, 870-879 (1996)). Neurons were seeded at a density of 800-1000 cells/well in Ham's F-12 containing 5% FCS and NGF at 10 pM into wells of Terasaki plates treated with polyysine. The cells were incubated with the indicated additives at 37° C. in a 5% CO2 atmosphere. The cells on the entire lower horizontal surface of the well were scored for neurite growth at 18-20 hours using an inverted microscope fitted with phase contrast optics. A neurite was scored if its caliber from the origin to terminal was constant and its length was equal to or greater than 1.5 cell body diameters. Neurite growth was corrected for background (no NGF).
# (§5) Human recombinant BDNF and human recombinant NT-3 were obtained from Alomone Laboratories (Israel). The iodination, crosslinking, and binding experiments using BDNF and NT-3 were performed using the methods described above for NGF. Neurite outgrowth assays were performed as described in the presence of 4.0 nM NT-3 or 8.0 nM BDNF.
# DRG neurons [7] = experiment: NT-3-dependent neurite outgrowth of DRG neurons; type: cell-based, chick; details: n = 8
# Description: as §4, §5
# p75^NTR /TrkA = experiment: Receptor crosslinking of 125I-NGF with transition metal ions (receptor selectivity); type: binding
# Sequence of p75^NTR /TrkA (P01139 122-239): as above
# Sequence of p75^NTR /TrkA (P07174 30-425 partner): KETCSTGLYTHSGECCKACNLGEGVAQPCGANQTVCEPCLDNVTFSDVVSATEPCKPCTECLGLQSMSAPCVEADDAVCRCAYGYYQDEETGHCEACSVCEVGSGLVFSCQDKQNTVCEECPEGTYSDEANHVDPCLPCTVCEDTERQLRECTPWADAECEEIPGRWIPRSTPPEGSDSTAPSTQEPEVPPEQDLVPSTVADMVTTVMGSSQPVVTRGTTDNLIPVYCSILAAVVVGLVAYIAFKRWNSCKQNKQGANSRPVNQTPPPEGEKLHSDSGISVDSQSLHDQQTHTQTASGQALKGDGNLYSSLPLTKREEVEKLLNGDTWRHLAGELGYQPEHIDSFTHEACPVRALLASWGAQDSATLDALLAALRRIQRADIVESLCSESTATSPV
# Sequence of p75^NTR /TrkA (P35739 33-799 partner): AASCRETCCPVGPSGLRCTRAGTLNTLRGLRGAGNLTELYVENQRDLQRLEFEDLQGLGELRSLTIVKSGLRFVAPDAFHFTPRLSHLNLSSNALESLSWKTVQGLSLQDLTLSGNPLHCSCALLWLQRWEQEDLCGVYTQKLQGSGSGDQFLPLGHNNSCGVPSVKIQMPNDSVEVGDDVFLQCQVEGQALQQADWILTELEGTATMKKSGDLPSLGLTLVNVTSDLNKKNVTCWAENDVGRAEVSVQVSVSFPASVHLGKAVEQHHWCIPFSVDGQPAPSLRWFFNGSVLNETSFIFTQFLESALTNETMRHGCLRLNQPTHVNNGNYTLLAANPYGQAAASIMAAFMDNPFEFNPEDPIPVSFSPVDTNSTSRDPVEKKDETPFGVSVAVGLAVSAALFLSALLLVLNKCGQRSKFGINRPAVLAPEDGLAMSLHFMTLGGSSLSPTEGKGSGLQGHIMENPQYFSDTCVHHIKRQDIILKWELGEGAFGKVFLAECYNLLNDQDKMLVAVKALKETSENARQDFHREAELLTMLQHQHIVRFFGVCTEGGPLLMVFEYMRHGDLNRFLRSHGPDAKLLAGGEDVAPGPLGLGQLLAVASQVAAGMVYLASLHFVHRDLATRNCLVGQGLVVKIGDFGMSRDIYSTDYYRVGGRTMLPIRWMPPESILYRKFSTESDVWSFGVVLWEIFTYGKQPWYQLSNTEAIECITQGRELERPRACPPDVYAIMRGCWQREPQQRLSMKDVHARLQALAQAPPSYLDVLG
# Description: as §3
smiles,measurement,setting,value
[Zn+2] [Zn^2+],steady-state specific binding of 125I-NGF (0.5 nM) to p75NTR and TrkA,p75^NTR and TrkA [1]; 10 μM,88 ± 13 % Control
same,steady-state specific binding of 125I-NGF (0.5 nM) to p75NTR and TrkA,p75^NTR and TrkA [1]; 30 μM,82 ± 10 % Control
same,steady-state specific binding of 125I-NGF (0.5 nM) to p75NTR and TrkA,p75^NTR and TrkA [1]; 50 μM,44 ± 13 % Control
same,Total Binding to PC12 cells,"p75^NTR and TrkA [1]; 100 μM, 125I-NGF",21 ± 5 % control
same,steady-state specific binding of 125I-NGF (0.5 nM) to p75NTR and TrkA,p75^NTR and TrkA [1]; 100 μM,19 ± 9 % Control
same,Non-specific binding of 125I-NGF,p75^NTR and TrkA [2],altered non-specific binding
same,Inhibition of 125I-NGF binding,p75^NTR and TrkA [3],effectively blocked binding
same,NGF-mediated survival of PC12 cells,"PC12 cells [4]; 100 μM, serum-free, CaEDTA together with Zn2+",reduced signifcantly
same,Antagonism of NGF-dependent survival,PC12 cells [4]; high (1 nM) or low (50 pM) NGF,ability to antagonize the NGF-dependant survival
same,Survival @ 50 pM NGF,"PC12 cells [4]; rat, pc12 cells, 100 µM",67 ± 19 % control
same,Survival @ 1 nM NGF,"PC12 cells [4]; rat, pc12 cells, 100 µM",84 ± 39 % control
same,Toxicity (PC12 cell viability),PC12 cells [5]; 100 μM,97 ± 11 % control
same,Toxicity to PC12 cells,"PC12 cells [5]; in presence of serum, up to 100 μM",no loss in cell viability; also recorded: not toxic
same,NGF-induced TrkA phosphorylation,"TrkA receptor; 100 μM, PC12 cells",prevented phosphorylation
same,Basal TrkA phosphorylation,TrkA receptor; no NGF,no effect on basal TrkA phosphorylation
same,"Neurite Outgrowth, BDNF (8.0 nM)",DRG neurons [6]; 30 μM Zn2+,30.0 ± 13.3 % Maximum process bearing neur
same,"Neurite Outgrowth, BDNF (8.0 nM)",DRG neurons [6]; 50 μM Zn2+,1.4 ± 1.4 % Maximum process bearing neur
same,"Neurite Outgrowth, NT-3 (4.0 nM)",DRG neurons [7]; 30 μM Zn2+,79.9 ± 13.8 % Maximum process bearing neur
same,"Neurite Outgrowth, NT-3 (4.0 nM)",DRG neurons [7]; 50 μM Zn2+,18.4 ± 9.6 % Maximum process bearing neur
same,Blocking of NGF binding to TrkA and p75NTR in receptor crosslinking,p75^NTR /TrkA,blocked binding to both receptors
